Measured values published in patent US20100137313A1 (ASTRAZENECA AB, priority 2008, published 2010).

Target: S. pneumoniae Topoisomerase IV ATPase (ParE) (Streptococcus pneumoniae serotype 4, UniProt Q59961)
Assay: S. pneumoniae Topoisomerase IV ATPase inhibition
Format: biochemical
Details: values marked * are an average of two or more data points, read-out: % Inh (13 μM) of S. pneumoniae Topoisomerase IV ATPase
Procedure, shortened: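 S. pneumoniae ParE (1.25 nM) ATPase with 160 μM ATP and 5 μg/ml sheared DNA in pH 8.0 Tris, Mg2+, DTT, Brij-35; phosphate detected by malachite green/molybdate at 650 nm. Normalised to 2% DMSO (0%) and 20 μM EDTA (100%); IC50 from 10 concentrations.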

Chain of S. pneumoniae Topoisomerase IV ATPase (ParE) (Q59961 whole entry): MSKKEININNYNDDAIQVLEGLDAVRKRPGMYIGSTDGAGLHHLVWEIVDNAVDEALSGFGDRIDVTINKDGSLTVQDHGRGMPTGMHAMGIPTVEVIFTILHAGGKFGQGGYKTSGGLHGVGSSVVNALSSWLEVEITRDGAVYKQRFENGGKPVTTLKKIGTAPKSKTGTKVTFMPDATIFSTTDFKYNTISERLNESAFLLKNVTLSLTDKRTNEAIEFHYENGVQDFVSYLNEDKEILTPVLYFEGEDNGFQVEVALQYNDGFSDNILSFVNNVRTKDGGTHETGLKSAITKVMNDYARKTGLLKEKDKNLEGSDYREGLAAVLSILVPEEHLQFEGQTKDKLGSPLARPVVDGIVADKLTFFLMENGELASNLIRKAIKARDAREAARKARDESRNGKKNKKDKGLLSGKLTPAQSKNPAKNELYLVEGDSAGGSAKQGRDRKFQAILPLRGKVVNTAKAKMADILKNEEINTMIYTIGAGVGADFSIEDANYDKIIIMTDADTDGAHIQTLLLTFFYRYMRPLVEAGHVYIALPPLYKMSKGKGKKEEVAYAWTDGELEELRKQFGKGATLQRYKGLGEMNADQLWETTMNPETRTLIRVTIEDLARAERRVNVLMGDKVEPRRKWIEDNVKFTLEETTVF

Compound | inhibition at 13 µM [%]
CN1CCN(CCn2cc(C(=O)O)c(=O)c3cc(-c4cnc(Nc5ccc(F)c(Cl)c5)nc4-n4ccc(C(F)(F)F)n4)ccc32)CC1 [Example 1071, 6-(2-(3-Chloro-4-fluorophenylamino)-4-(3-(trifluoromethyl)-1H-pyrazol-1-yl)pyrimidin-5-yl)-1-(2-(4-methylpiperazin-1-yl)ethyl)-4-oxo-1,4-dihydroquinoline-3-carboxylic acid] | 100
O=C(O)C(=O)Nc1cccc(-c2cnc(Nc3ccc(F)c(Cl)c3)nc2-n2ccc(C(F)(F)F)n2)c1 [Example 1072, 2-(3-(2-(3-Chloro-4-fluorophenylamino)-4-(3-(trifluoromethyl)-1H-pyrazol-1-yl)pyrimidin-5-yl)phenylamino)-2-oxoacetic acid] | 95
Nc1ncc(-c2cnc(Nc3ccc(F)c(Cl)c3)nc2-n2ccc(C(F)(F)F)n2)cc1C(=O)O [Example 1073, 2-Amino-5-(2-(3-chloro-4-fluorophenylamino)-4-(3-(trifluoromethyl)-1H-pyrazol-1-yl)pyrimidin-5-yl)nicotinic acid] | 99
COc1ccc(-c2cnc(Nc3ccc(F)c(Cl)c3)nc2-n2ccc(C(F)(F)F)n2)cc1C(=O)O [Example 1074, 5-(2-(3-Chloro-4-fluorophenylamino)-4-(3-(trifluoromethyl)-1H-pyrazol-1-yl)pyrimidin-5-yl)-2-methoxybenzoic acid] | 100
O=C(O)c1cc(-c2cnc(Nc3ccc(F)c(Cl)c3)nc2-n2ccc(C(F)(F)F)n2)cn(CCN2CCOCC2)c1=O [Example 1075, 5-(2-(3-Chloro-4-fluorophenylamino)-4-(3-(trifluoromethyl)-1H-pyrazol-1-yl)pyrimidin-5-yl)-1-(2-morpholinoethyl)-2-oxo-1,2-dihydropyridine-3-carboxylic acid] | 97
Cc1cc(C(F)(F)F)nn1-c1nc(Nc2ccc(F)c(Cl)c2)ncc1-c1cc(C(=O)O)c(=O)n(CCN2CCOCC2)c1 [Example 1076, 5-(2-(3-Chloro-4-fluorophenylamino)-4-(5-methyl-3-(trifluoromethyl)-1H-pyrazol-1-yl)pyrimidin-5-yl)-1-(2-morpholinoethyl)-2-oxo-1,2-dihydrpyridine-3-carboxylic acid] | 99
O=C(O)c1cc(-c2cnc(Nc3ccc(F)c(Cl)c3)nc2-n2ccc(C(F)(F)F)n2)cnc1NCCN1CCOCC1 [Example 1077, 5-(2-(3-Chloro-4-fluorophenylamino)-4-(3-(trifluoromthyl)-1H-pyrazol-1-yl)pyrimidin-5-yl)-2-(2-morpholinoethylamino)nicotinic acid] | 99
Cc1cc(C(F)(F)F)nn1-c1nc(Nc2ccc(F)c(Cl)c2)ncc1-c1cnc(NCCN2CCOCC2)c(C(=O)O)c1 [Example 1078, 5-(2-(3-Chloro-4-fluorophenylamino)-4-(5-methyl-3-(trifluoromethyl)-1H-pyrazol-1-yl)pyrimidin-5-yl)-2-(2-morpholinoethylamino)nicotinic acid] | 100
COCCNc1ncc(-c2cnc(Nc3ccc(F)c(Cl)c3)nc2-n2ccc(C(F)(F)F)n2)cc1C(=O)O [Example 1079, 5-(2-(3-Chloro-4-fluorophenylamino)-4-(3-(trifluoromethyl)-1H-pyrazol-1-yl)pyrimidin-5-yl)-2-(2-methoxyethylamino)nicotinic acid] | 100
COCCNc1ncc(-c2cnc(Nc3ccc(F)c(Cl)c3)nc2-n2nc(C(F)(F)F)cc2C)cc1C(=O)O [Example 1080, 5-(2-(3-Chloro-4-fluorophenylamino)-4-(5-methyl-3-(trifluoromethyl)-1H-pyrazol-1-yl)pyrimidin-5-yl)-2-(2-methoxyethylamino)nicotinic acid] | 100
COCCn1cc(-c2cnc(Nc3ccc(F)c(Cl)c3)nc2-n2ccc(C(F)(F)F)n2)cc(C(=O)O)c1=O [Example 1081, 5-(2-(3-Chloro-4-fluorophenylamino)-4-(3-(trifluoromethyl)-1H-pyrazol-1-yl)pyrimidin-5-yl)-1-(2-methoxyethyl)-2-oxo-1,2-dihydropyridine-3-carboxylic acid] | 100
COCCn1cc(-c2cnc(Nc3ccc(F)c(Cl)c3)nc2-n2nc(C(F)(F)F)cc2C)cc(C(=O)O)c1=O [Example 1082, 5-(2-(3-Chloro-4-fluorophenylamino)-4-(5-methyl-3-(trifluoromethyl)-1H-pyrazol-1-yl)pyrimidin-5-yl)-1-(2-methoxyethyl)-2-oxo-1,2-dihydropyridine-3-carboxylic acid] | 100
O=C(O)c1cc(-c2cnc(Nc3ccc(F)c(Cl)c3)nc2-n2ccc(C(F)(F)F)n2)cn(CCO)c1=O [Example 1083, 5-(2-(3-Chloro-4-fluorophenylamino)-4-(3-(trifluoromethyl)-1H-pyrazol-1-yl)pyrimidin-5-yl)-1-(2-hydroxyethyl)-2-oxo-1,2-dihydropyridine-3-carboxylic acid] | 99
Cc1cc(C(F)(F)F)nn1-c1nc(Nc2ccc(F)c(Cl)c2)ncc1-c1cc(C(=O)O)c(=O)n(CCO)c1 [Example 1084, 5-(2-(3-Chloro-4-fluorophenylamino)-4-(5-methyl-3-(trifluoromethyl)-1H-pyrazol-1-yl)pyrimidin-5-yl)-1-(2-hydroxyethyl)-2-oxo-1,2-dihydropyridine-3-carboxylic acid] | 100
CCn1cc(-c2cnc(Nc3ccc(F)c(Cl)c3)nc2-n2ccc(C(F)(F)F)n2)cc(C(=O)O)c1=O [Example 1085, 5-(2-(3-Chloro-4-fluorophenylamino)-4-(3-(trifluoromethyl)-1H-pyrazol-1-yl)pyrimidin-5-yl)-1-ethyl-2-oxo-1,2-dihydropyridine-3-carboxylic acid] | 100
CCn1cc(-c2cnc(Nc3ccc(F)c(Cl)c3)nc2-n2nc(C(F)(F)F)cc2C)cc(C(=O)O)c1=O [Example 1086, 5-(2-(3-Chloro-4-fluorophenylamino)-4-(5-methyl-3-(trifluoromethyl)-1H-pyrazol-1-yl)pyrimidin-5-yl)-1-ethyl-2-oxo-1,2-dihydropyridine-3-carboxylic acid] | 92
Cn1cc(-c2cnc(Nc3ccc(F)c(Cl)c3)nc2-n2ccc(C(F)(F)F)n2)cc(C(=O)O)c1=O [Example 1087, 5-(2-(3-Chloro-4-fluorophenylamino)-4-(3-(trifluoromethyl)-1H-pyrazol-1-yl)pyrimidin-5-yl)-1-methyl-2-oxo-1,2-dihydropyridine-3-carboxylic acid] | 100
Cc1cc(C(F)(F)F)nn1-c1nc(Nc2ccc(F)c(Cl)c2)ncc1-c1cc(C(=O)O)c(=O)n(C)c1 [Example 1088, 5-(2-(3-chloro-4-fluorophenylamino)-4-(5-methyl-3-(trifluoromethyl)-1H-pyrazol-1-yl)pyrimidin-5-yl)-1-methyl-2-oxo-1,2-dihydrpyridine-3-carboxylic acid] | 100
CC(C)N1CCN(CCn2cc(-c3cnc(Nc4ccc(F)c(Cl)c4)nc3-n3ccc(C(F)(F)F)n3)cc(C(=O)O)c2=O)CC1 [Example 1089, 5-(2-(3-chloro-4-fluorophenylamino)-4-(3-(trifluoromethyl)-1H-pyrazol-1-yl)pyrimidin-5-yl)-1-(2-(4-isopropylpiperazin-1-yl)ethyl)-2-oxo-1,2-dihydropyridine-3-carboxylic acid] | 100
Cc1cc(C(F)(F)F)nn1-c1nc(Nc2ccc(F)c(Cl)c2)ncc1-c1cc(C(=O)O)c(=O)n(CCN2CCN(C(C)C)CC2)c1 [Example 1090, 5-(2-(3-chloro-4-fluorophenylamino)-4-(5-methyl-3-(trifluoromethyl)-1H-pyrazol-1-yl)pyrimidin-5-yl)-1-(2-(4-isopropylpiperazin-1-yl)ethyl)-2-oxo-1,2-dihydropyridine-3-carboxylic acid] | 100
CS(=O)(=O)CCn1cc(-c2cnc(Nc3ccc(F)c(Cl)c3)nc2-n2ccc(C(F)(F)F)n2)cc(C(=O)O)c1=O [Example 1091, 5-(2-(3-Chloro-4-fluorophenylamino)-4-(3-(trifluoromethyl)-1H-pyrazol-1-yl)pyrimidin-5-yl)-1-(2-(methylsulfonyl)ethyl)-2-oxo-1,2-dihydropyridine-3-carboxylic acid] | 100
O=C(O)c1cc(-c2cnc(Nc3ccc(F)c(Cl)c3)nc2-n2ccc(C(F)(F)F)n2)c[nH]c1=O [Example 1092, 5-(2-(3-Chloro-4-fluorophenylamino)-4-(3-(trifluoromethyl)-1H-pyrazol-1-yl)pyrimidin-5-yl)-2-oxo-1,2-dihydropyridine-3-carboxylic acid] | 100
Cc1cc(C(F)(F)F)nn1-c1nc(Nc2ccc(F)c(Cl)c2)ncc1-c1cc(C(=O)O)c(=O)n(CCS(C)(=O)=O)c1 [Example 1093, 5-(2-(3-Chloro-4-fluorophenylamino)-4-(5-methyl-3-(trifluoromethyl)-1H-pyrazol-1-yl)pyrimidin-5-yl)-1-(2-(methylsulfonyl)ethyl)-2-oxo-1,2-dihydropyridine-3-carboxylic acid] | 100
Cc1cc(C(F)(F)F)nn1-c1nc(Nc2ccc(F)c(Cl)c2)ncc1-c1c[nH]c(=O)c(C(=O)O)c1 [Example 1094, 5-(2-(3-Chloro-4-fluorophenylamino)-4-(5-methyl-3-(trifluoromethyl)-1H-pyrazol-1-yl)pyrimidin-5-yl)-2-oxo-1,2-dihydropyridine-3-carboxylic acid] | 99
COc1cc(Nc2ncc(-c3cc(C(=O)O)c(=O)n(CCS(C)(=O)=O)c3)c(-n3ccc(C(F)(F)F)n3)n2)cc(OC)c1 [Example 1095, 5-(2-(3,5-dimethoxyphenylamino)-4-(3-(trifluoromethyl)-1H-pyrazol-1-yl)pyrimidin-5-yl)-1-(2-(methylsulfonyl)ethyl)-2-oxo-1,2-dihydropyridine-3-carboxylic acid] | 100
